Results: patent US20060014723A1, “Anti-parasitic uses of borinic acid complexes” (priority 2004, published 2006)
≈ marks a conversion by molar mass, not a printed value.

Legend:
[1] = system: P. falciparum K1; test: Malaria in vitro screening model (3H-hypoxanthine incorporation); assay type: cell-based, Plasmodium falciparum; details: for IC50: Plasmodium falciparum, K1
Procedure: […] P. falciparum K1 is used in this study. K1 (a clone originating from Thailand) is resistant to chloroquine and pyrimethamine. The strains are maintained in RPMI 1640 medium with 0.36 mM hypoxanthine, supplemented with 25 mM N 2-hydroxyethyipiperazine-N-2-ethane-sulphonic acid (HEPES), 25 mM NaHCO3, neomycin (100 U/mL) and 5 g/L of ALBUMAX® II (lipid-rich bovine serum albumin, GIBCO, Grand Island, N.Y., USA), together with 5% washed human A+ erythrocytes. All cultures and assays are conducted at 37° C. under an atmosphere of 4% CO2, 3% O2 and 93% N2. Cultures are kept in incubation chambers filled with the gas mixture. Subcultures are diluted to a parasitemia of between 0.1 and 0.5% and the medium is changed daily.
Antimalarial activity is assessed using an adaptation of the procedures described by Desjardins et al. (Antimicrob. Agents Chemother. 16:710-718, 1979), and Matile and Pink (In: Lefkovits, I. and Pernis, B. (Eds.), Immunological Methods Vol. IV, Academic Press, San Diego, pp. 221-234, 1990).
Stock drug solutions are prepared in 100% dimethylsulfoxide (DMSO) at 10 mg/mL, and heated or sonicated if necessary to dissolve the sample. After use, the stocks are kept at −20° C. For the assays, the compound is further diluted in serum-free culture medium and finally to the appropriate concentration in complete medium without hypoxanthine.
Assays are performed in sterile 96-well microtiter plates, each well containing 200 μl of parasite culture (0.15% parasitemia, 2.5% hematocrit) with or without serial drug solutions. Seven 2-fold dilutions are used, covering a range from […] to 0.078 μg/mL. For active compounds the highest concentration is lowered (e.g., to […]); for plant extracts the highest concentration is increased to 50 μg/mL. […] After 48 hours of incubation at 37° C., 0.5 μCi ^3H-hypoxanthine is added to each well. Cultures are incubated for a further 24 h before being harvested onto glass-fiber filters and washed with distilled water. The radioactivity is counted using a Betaplate liquid scintillation counter (Wallac, Zurich, Switzerland). The results are recorded as counts per minute per well at each drug concentration and expressed as percentage of the untreated controls. IC50 values are calculated from the sigmoidal inhibition curves using Microsoft EXCEL.

[2] = system: T. b. rhodesiense STIB 900; test: African sleeping sickness in vitro screening model (Alamar Blue); assay type: cell-based, Trypanosoma brucei rhodesiense; details: for IC50: Trypanosoma brucei
Outline: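 Bloodstream-form trypomastigotes, 8×10^3/well, were grown in supplemented MEM with 15% horse serum, without hypoxanthine, at 37 °C in 5% CO2. They were exposed for 72 h to seven 3-fold dilutions from 90 to 0.123 μg/mL. Resazurin (Alamar Blue) was added for 2 h, fluorescence read at ex 536/em 588 nm, and IC50 taken as the mean of four values.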

[3] = system: Trypanosoma cruzi Tulahuen C2C4 strain; test: Chagas disease in vitro screening model (beta-galactosidase strain in L-6 cells); assay type: cell-based; details: for IC50: Trypanosoma cruzi, TULAHUEN, L6, read-out: T. cruzi IC50
Outline: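 L-6 rat myoblasts in RPMI 1640/10% FBS at 37 °C were infected with 5×10^3 lacZ-expressing T. cruzi Tulahuen C2C4 trypomastigotes. CPRG/Nonidet substrate was read at 540 nm, and IC50 came from sigmoidal curves.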

[4] = system: Leishmania donovani strain MHOM/ET1671L82; test: Leishmaniasis in vitro screening model (axenic amastigotes, Alamar Blue); assay type: cell-based; details: for IC50: Leishmania donovani, read-out: L. donovani IC50
Outline: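 Axenic L. donovani amastigotes (10^5 per well) from hamster spleen, grown at 37° C in SM medium pH 5.4 with 10% FBS, 5% CO2, exposed to serial 3-fold compound dilutions (30 to 0.041 μg/mL) for 72 h. Alamar Blue added for 2 h, fluorescence read (ex 536/em 588 nm); IC50 from sigmoidal curve versus control cultures.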

| Compound | IC50 [1] [µg/mL] | IC50 [2] [µg/mL] | IC50 [3] [µg/mL] | IC50 [4] [µg/mL] | P. falciparum IC50 [1] [µg/mL] | T. b. rhodesiense IC50 [2] [µg/mL] | T. cruzi IC50 [3] [µg/mL] | L. donovani IC50 [4] [µg/mL] |
| --- | --- | --- | --- | --- | --- | --- | --- | --- |
| COc1cc(B(Oc2cccc3cccnc23)c2cccc(F)c2)ccc1Cl [Compound 45, (4-Chloro-3-methoxyphenyl)(3-fluorophenyl)borinic acid quinolin-8-yl ester] | 1.84 (≈ 4.7 µM) | 0.48 (≈ 1.23 µM) | 1.15 (≈ 2.92 µM) | 0.5 (≈ 1.28 µM) | – | – | – | – |
| Fc1cc(B(Oc2cccc3cccnc23)c2ccc(Cl)cc2)cc(C(F)(F)F)c1 [Compound 47, (4-Chlorophenyl)(3-fluoro-5-trifluoromethylphenyl)borinic acid quinolin-8-yl ester] | 2.07 (≈ 4.82 µM) | 0.5 (≈ 1.16 µM) | 1.7 (≈ 3.96 µM) | 0.51 (≈ 1.19 µM) | – | – | – | – |
| C=CB(Oc1cccc2cccnc12)c1cccnc1 [Compound 49, (3-Pyridyl)vinylborinic acid 8-hydroxyquinoline ester] | – | – | – | – | 1.58 | 0.2185 | 1.345 | 0.45 |
| Nc1cccc(C(=O)OB(c2ccc(Cl)cc2)c2ccc(Cl)cc2)n1 [Compound 50] | – | – | – | – | 0.6115 | 9.45 | 0.135 | 0.23 |
| Cc1ccc(B(OC(=O)c2ncccc2O)c2ccc(C)c(Cl)c2)cc1Cl [Compound 69] | – | – | – | – | 2.449 | 16.5 | 3.35 | 0.22 |
| O=C(OB(c1cccnc1)c1cccc(Cl)c1)c1ncccc1O [Compound 70] | – | – | – | – | >5 | 38.3 | 28.2 | 18.3 |
| COC(=O)c1cccnc1C(=O)OB(c1ccc(C)c(Cl)c1)c1ccc(C)c(Cl)c1 [Compound 73] | – | – | – | – | 2.997 | 21.3 | 7.2 | 0.63 |
| O=C(O)CCCOc1cccnc1C(=O)OB(c1cccc(Cl)c1)c1cccc(Cl)c1 [Compound 75] | – | – | – | – | 0.494 | 31.1 | 8.9 | 0.61 |
| O=C(OB(c1ccc(Cl)cc1)c1ccc(Cl)cc1)c1ncccc1OCCN1CCOCC1 [Compound 76] | – | – | – | – | 3.81 | 19.8 | 4.05 | 2 |
| O=C(OB(c1cccc(Cl)c1)c1cccc(Cl)c1)c1ncccc1OCCN1CCOCC1 [Compound 77] | – | – | – | – | 1.225 | 17.2 | 5.15 | 1.1 |
| Cc1ccc2c(Cl)cc(Cl)c(OB(c3ccc(Cl)cc3)c3ccc(Cl)cc3)c2n1 [Compound 80] | – | – | – | – | 1.71 | 1.06 | 1.315 | 0.12 |
| CC1(C)COC(c2cccc(B(Oc3c(Cl)cc(Cl)c4cccnc34)c3cccc(F)c3)c2)=N1 [Compound 81] | – | – | – | – | 3.355 | 1.9 | 4.2 | 0.18 |
| C=CB(Oc1c(Cl)cc(Cl)c2ccc(C)nc12)c1cccnc1 [Compound 82] | – | – | – | – | 2.647 | 1.19 | 1.95 | 0.22 |
| C=CB(Oc1c(N(C)C)cc(Cl)c2cccnc12)c1ccnc(Cl)c1 [Compound 83] | – | – | – | – | 0.979 | 0.715 | 0.77 | 1.1 |
| C=CB(Oc1c(Cl)cc(Cl)c2ccc(C)nc12)c1cccc(N(C)C)c1 [Compound 84] | – | – | – | – | 2.364 | 0.915 | 1.7 | 0.16 |
| CSc1cccc(B(Oc2cccc3cccnc23)c2cccc(SC)c2)c1 [Compound 87] | – | – | – | – | 4.632 | 0.3 | 3.2 | 0.39 |
| Fc1cc(B(Oc2cccc3cccnc23)c2ccc(Cl)c(F)c2)ccc1Cl [Compound 89] | – | – | – | – | 1.385 | 0.41 | 1.36 | 0.38 |
| C=CB(Oc1cccc2cccnc12)c1cccc(C2=NC(C)(C)CO2)c1 [Compound 93] | – | – | – | – | 3.034 | 0.32 | 3.65 | 0.55 |
| N#Cc1cccc(B(Oc2cccc3cccnc23)c2ccc(F)cc2F)c1 [Compound 96] | – | – | – | – | 3.035 | 0.34 | 3.3 | 0.63 |
| N#Cc1ccc(B(Oc2cccc3cccnc23)c2ccc(F)c(F)c2)cc1 [Compound 97] | – | – | – | – | 4.036 | 0.37 | 3.45 | 0.58 |
| N#Cc1ccc(B(Oc2cccc3cccnc23)c2ccc(F)cc2F)cc1 [Compound 98] | – | – | – | – | 3.245 | 0.345 | 4.05 | 0.59 |
| CS(=O)(=O)Nc1ccc(B(Oc2cccc3cccnc23)c2cccc(Cl)c2)cc1 [Compound 108] | – | – | – | – | 2.417 | 0.305 | 4.95 | 0.59 |
| Fc1cccc(B(Oc2cccc3cccnc23)c2ccc(Cl)c(C(F)(F)F)c2)c1 [Compound 115] | – | – | – | – | 3.077 | 0.465 | 3.6 | 0.59 |
| C=CB(Oc1cccc2cccnc12)c1ccc(F)c(Cl)c1 [Compound 116] | – | – | – | – | 3.95 | 0.5865 | 3.65 | >30 |
| CN(C)Cc1ccc(B(Oc2cccc3cccnc23)c2cc(F)cc(C(F)(F)F)c2)cc1 [Compound 120] | – | – | – | – | 2.794 | 0.42 | 4.9 | 0.44 |
| N#Cc1ccc(B(Oc2cccc3cccnc23)c2cc(F)cc(C(F)(F)F)c2)cc1 [Compound 122] | – | – | – | – | 4.577 | 0.4 | 4.55 | 0.45 |
| Fc1cc(B(Oc2cccc3cccnc23)c2cccc(Cl)c2)cc(C(F)(F)F)c1 [Compound 123] | – | – | – | – | 3.51 | 0.31 | 4 | 0.54 |
| CN(C)Cc1ccc(B(Oc2cccc3cccnc23)c2ccc(C#N)cc2)cc1 [Compound 125] | – | – | – | – | 4.973 | 0.5 | 4.9 | 0.38 |
| CN(C)Cc1ccc(B(Oc2cccc3cccnc23)c2cccc(C3=NC(C)(C)CO3)c2)cc1 [Compound 126] | – | – | – | – | 4.746 | 0.595 | 5.05 | 0.45 |
